Assay results: ChEMBL document CHEMBL1681768, “Synthesis and biological evaluation of 4-quinazolinones as Rho kinase inhibitors” (Bioorg Med Chem Lett, 2011)

Key:
Assay type in all cases: ADME, organism-based
[1] = Oral bioavailability in Sprague-Dawley rat at 2 mg/kg; conditions: in vivo
[2] = Cmax in Sprague-Dawley rat at 2 mg/kg, po; set-up: dose 2 mg/kg, route oral; conditions: in vivo
[3] = AUC in Sprague-Dawley rat at 2 mg/kg, po; set-up: dose 2 mg/kg, route oral; conditions: plasma
[4] = Volume of distribution at steady state in Sprague-Dawley rat at 1 mg/kg, iv; set-up: dose 1 mg/kg, route intravenous; conditions: in vivo, read-out: Vdss

bioavailability [1] [%] | Cmax [2] [nM] | AUC [3] [µM·h] | Vd [4] [L/kg] | SMILES
66 | 8000 | 43.4 | 0.27 | COc1ccc2c(c1)CC(c1nc3ccc(-c4cn[nH]c4)cc3c(=O)[nH]1)CO2 (centres undefined)
46 | 2850 | 63.2 | 0.14 | COc1ccc2c(c1)C[C@H](c1nc3ccc(-c4cn[nH]c4)cc3c(=O)[nH]1)CO2
13 | 580 | 2.36 | 0.49 | COc1ccc2c(c1)C[C@@H](c1nc3ccc(-c4cn[nH]c4)cc3c(=O)[nH]1)CO2
26 | 4600 | 87.9 | 0.1 | COc1ccc2c(c1)CC(c1nc3c(OC)cc(-c4cn[nH]c4)cc3c(=O)[nH]1)CO2 (centres undefined)
3 | 50 | 0.15 | 1.3 | COc1ccc2c(c1)CC(c1nc3c(OCCN(C)C)cc(-c4cn[nH]c4)cc3c(=O)[nH]1)CO2 (centres undefined)
15 | 660 | 9.63 | 0.22 | COc1cccc(OCc2nc3c(OC)cc(-c4cn[nH]c4)cc3c(=O)[nH]2)c1
